From EPA's ToxValDB 9.5

Test system: Mus musculus
[1] = reproduction developmental, oral, gavage, M, C57BL/6, generation: F1, F1: spleen: mean percent splenic CD4+CD25+Foxp3+ T cells
[2] = short-term, duration: 4 weeks, oral, gavage, M, TNF-alpha mRNA levels in liver (normalized to GAPDH)
[3] = short-term, duration: 4 days, dermal, F, BALB/c, body weight + thymus: thymus: absolute weight
[4] = short-term, duration: 10 days, oral, diet, M, C57BL/6, bone marrow: bone marrow: no. of CD19+ B-lymphoid cells + bone marrow: bone marrow: no. of early mature CD19+CD138-IgM+ B cells + bone …
[5] = short-term, duration: 10 days, oral, diet, M, C57BL/6, serum AH50 + serum C3 + serum CH50
[6] = short-term, duration: 10 days, oral, diet, M, C57BL/6, spleen: spleen: absolute weight + thymus: thymus: absolute weight
[7] = short-term, duration: 10 days, oral, diet, M, C57BL/6, spleen: spleen: relative weight + thymus: thymus: relative weight

SMILES: O=C([O-])C(F)(F)C(F)(F)C(F)(F)C(F)(F)C(F)(F)C(F)(F)C(F)(F)F.[NH4+] [Ammonium perfluorooctanoate]
- LOEL (acute, duration: 1 days, injection, intraperitoneal, serum histamine content): 1 mg/kg-day
- NOEL (developmental, duration: 9 days, oral, drinking water, F, C57BL/6, generation: F1, F1: IgM antibody titer (SRBC) + F1: spleen: spleen: relative weight + F1: thymus: thymus: relative weight): 6.7 mg/L
- NOEL (developmental, duration: 16 days, oral, gavage, F, CD1, generation: F1, F1: spleen: spleen: relative weight (ovx)): 5 mg/kg-day
- NOEL (reproduction developmental, oral, diet, M/F, BALB/c, generation: F1, F1: airway MCh sensitivity + F1: airway resistance (at 25 mg/mL methacholine) + F1: lung: BALF inflammatory cell counts: eosinophils + F1: …): 4 ppm
- LOEL (reproduction developmental, oral, diet, M/F, BALB/c, generation: F1, F1: airway MCh sensitivity + F1: airway resistance (at 25 mg/mL methacholine) + F1: lung: BALF inflammatory cell counts: macrophages + F1: …): 4 ppm
- NOEL (reproduction developmental, oral, gavage, F, C57BL/6, generation: F1, F1: mean serum anti-MBP): 2 mg/kg-day
- NOEL (reproduction developmental, oral, gavage, F, C57BL/6, generation: F1, F1: mean serum anti-dsDNA + F1: spleen: mean percent splenic CD4+CD25+Foxp3+ T cells): 0.2 mg/kg-day
- LOEL (reproduction developmental, oral, gavage, F, C57BL/6, generation: F1, F1: mean serum anti-ssDNA + F1: spleen (CD4+CD25+): IL-10 levels): 0.02 mg/kg-day
- LOEL (reproduction developmental, oral, gavage, F, C57BL/6, generation: F1, F1: spleen: mean percent splenic CD4+CD25+Foxp3+ T cells): 2 mg/kg-day
- NOEL (reproduction developmental, oral, gavage, M, C57BL/6, generation: F1, F1: mean serum anti-dsDNA + F1: mean serum anti-MBP + F1: mean serum anti-ssDNA): 2 mg/kg-day
- LOEL (reproduction developmental, oral, gavage, M, C57BL/6, generation: F1, F1: spleen (CD4+CD25+): IL-10 levels): 0.02 mg/kg-day
- LOEL [1]: 2 mg/kg-day
- NOEL [1]: 0.2 mg/kg-day
- NOEL (short-term, duration: 3 weeks, oral, diet, M, C57BL/6, fold changes of proinflammatory cytokine genes in liver: IL-1b gene (relative to control) + fold changes of proinflammatory cytokine genes …): 5 mg/kg-day
- LOEL (short-term, duration: 3 weeks, oral, diet, M, C57BL/6, fold changes of proinflammatory cytokine genes in liver: IP-10 gene (relative to control) + fold changes of proinflammatory cytokine genes …): 5 mg/kg-day
- NOEL (short-term, duration: 3 weeks, oral, gavage, F, BALB/c, IgM antibody level (TNP 1:50)): 20 mg/kg-day
- NOEL (short-term, duration: 4 weeks, oral, gavage, M, 129S4/SvlmJ, TNF-alpha mRNA levels in liver (normalized to GAPDH)): 21.6 mg/kg-day
- LOEL [2]: 10.8 mg/kg-day
- NOEL [2]: 5.39 mg/kg-day
- NOEL (short-term, duration: 2 days, oral, diet, M, C57BL/6, spleen: spleen: absolute weight + thymus: thymus: absolute weight + thymus: total thymic DNA content): 0.02%
- LOEL (short-term, duration: 2 days, oral, diet, M, C57BL/6, spleen: total splenic DNA content): 0.02%
- NOEL (short-term, duration: 4 days, dermal, F, BALB/c, OVA-specific IgE): 1.5%
- LOEL (short-term, duration: 4 days, dermal, F, BALB/c, PCA passive cutaneous anaphylaxis): 10 mg/kg-day
- LOEL (short-term, duration: 4 days, dermal, F, BALB/c, blood serum: OVA-specific IgE + blood serum: total serum IgE + OVA-specific airway hyperreactivity (AUC) + spleen: spleen B220+ cells + …): 1%
- NOEL (short-term, duration: 4 days, dermal, F, BALB/c, blood serum: OVA-specific IgE + blood serum: total serum IgE + OVA-specific airway hyperreactivity (AUC) + thymus: thymus cellularity + …): 0.75%
- NOEL (short-term, duration: 4 days, dermal, F, BALB/c, blood serum: OVA-specific IgE + spleen: spleen B220+ cells + spleen: spleen: absolute weight + thymus: thymus: absolute weight + total serum…): 0.5%
- LOEL (short-term, duration: 4 days, dermal, F, BALB/c, blood serum: OVA-specific IgE + thymus: thymus: absolute weight + total serum IgE): 0.75%
- LOEL [3]: 1.5%
- NOEL [3]: 1%
- LOEL (short-term, duration: 4 days, dermal, F, BALB/c, spleen: spleen cellularity + spleen: spleen: absolute weight): 0.5%
- LOEL (short-term, duration: 5 days, oral, diet, M, C57BL/6, spleen: spleen: absolute weight + spleen: total splenic DNA content + thymus: thymus: absolute weight + thymus: total thymic DNA content): 0.02%
- LOEL (short-term, duration: 7 days, oral, diet, M, C57BL/6, blood serum: TNF-alpha levels): 0.02%
- LOEL (short-term, duration: 7 days, oral, diet, M, C57BL/6, body weight + spleen: lymphocyte proliferation (ConA) + spleen: lymphocyte proliferation (LPS) + spleen: spleen CD19+ cells + spleen: spleen…): 0.02%
- NOEL (short-term, duration: 7 days, oral, diet, M, C57BL/6, cell cycle of splenocytes: G0/G1 phase + cell cycle of splenocytes: G1/2 phase + cell cycle of splenocytes: G2/M phase): 0.02%
- LOEL (short-term, duration: 7 days, oral, diet, M, C57BL/6, cell cycle of splenocytes: S phase + cell cycle of thymocytes: G0/G1 phase + cell cycle of thymocytes: G1/2 phase + cell cycle of thymocytes…): 0.02%
- LOEL (short-term, duration: 7 days, oral, diet, M, C57BL/6, lymphocyte proliferation in response to ConA (1 day culture) + lymphocyte proliferation in response to ConA (2 day culture) + lymphocyte …): 200 mg/kg-day
- NOEL (short-term, duration: 7 days, oral, diet, M, C57BL/6, spleen: splenocytes in G0/1 phase + splenocytes in G1/2 phase + splenocytes in G2/M phase): 200 mg/kg-day
- LOEL (short-term, duration: 7 days, oral, diet, M, body weight + spleen: spleen CD19+ cells + spleen: spleen CD3+ cells + spleen: spleen cellularity + thymocyte G0/1 phase + thymocyte G1/2 …): 0.02%
- NOEL (short-term, duration: 7 days, oral, diet, M, spleen: lymphocyte proliferation (ConA) + spleen: lymphocyte proliferation (LPS)): 0.02%
- LOEL (short-term, duration: 7 days, oral, gavage, F, BALB/c, Peripheral blood phagocytosis (HEMA) + spleen: lymphocyte proliferation (ConA) + spleen: lymphocyte proliferation (LPS) + Splenic NK cell …): 20 mg/kg-day
- NOEL (short-term, duration: 7 days, oral, gavage, F, BALB/c, spleen: spleen CD4+ cells + spleen: spleen CD49b+ cells + spleen: spleen CD8+ cells + spleen: spleen cellularity + spleen: spleen: relative …): 20 mg/kg-day
- LOEL (short-term, duration: 10 days, oral, diet, M, C57BL/6, IgG1 antibody-secreting cells (HRBC) + IgG1 antibody level (HRBC 1:160) + IgG1 antibody level (HRBC 1:20) + IgG1 antibody level (HRBC 1:80…): 0.02%
- NOEL (short-term, duration: 10 days, oral, diet, M, C57BL/6, IgG3 antibody-secreting cells (HRBC) + IgM antibody-secreting cells (HRBC) + IgM antibody level (HRBC 1:160)): 0.02%
- LOEL (short-term, duration: 10 days, oral, diet, M, C57BL/6, blood serum: IL-6 levels + blood serum: IL-6 levels (+LPS in vivo) + blood serum: TNF-alpha levels (+LPS in vivo) + bone marrow: IL-6 levels…): 0.02%
- NOEL (short-term, duration: 10 days, oral, diet, M, C57BL/6, blood serum: TNF-alpha levels + bone marrow: IL-6 levels + spleen: IL-6 levels): 0.02%
- LOEL (short-term, duration: 10 days, oral, diet, M, C57BL/6, bone marrow: bone marrow cellularity + bone marrow: bone marrow: no. of Gr1+CD11b+ myeloid cells + bone marrow: bone marrow: no. of immature…): 0.02%
- NOEL (short-term, duration: 10 days, oral, diet, M, C57BL/6, bone marrow: bone marrow cellularity + bone marrow: bone marrow: no. of Gr1+CD11b+ myeloid cells + spleen: spleen cellularity + spleen: …): 0.002%
- LOEL [4]: 0.002%
- NOEL [4]: 0.001%
- NOEL (short-term, duration: 10 days, oral, diet, M, C57BL/6, intrahepatic immune cells: all leukocytes (CD45+) + intrahepatic immune cells: B cells (CD19+) + intrahepatic immune cells: CD138 (plasma …): 0.002%
- LOEL (short-term, duration: 10 days, oral, diet, M, C57BL/6, intrahepatic immune cells: all leukocytes (CD45+) + intrahepatic immune cells: B cells (CD19+) + intrahepatic immune cells: cytotoxic T …): 0.002%
- NOEL (short-term, duration: 10 days, oral, diet, M, C57BL/6, liver: IFN-gamma levels (+Con A in vivo) + liver: IL-4 levels (+Con A in vivo) + liver: TNF-alpha levels (+Con A in vivo)): 0.002%
- LOEL (short-term, duration: 10 days, oral, diet, M, C57BL/6, liver: IFN-gamma levels + liver: IL-4 levels + liver: IL-6 levels + liver: IL-6 levels (+Con A in vivo) + liver: TNF-alpha levels): 0.002%
- LOEL [5]: 0.02%
- NOEL [5]: 0.01%
- NOEL (short-term, duration: 10 days, oral, diet, M, C57BL/6, spleen: relative splenic DNA content): 0.02%
- LOEL (short-term, duration: 10 days, oral, diet, M, C57BL/6, spleen: spleen CD19+ cells + spleen: spleen CD3+ cells + spleen: spleen CD4+ cells + spleen: spleen CD8+ cells + spleen: spleen: absolute …): 0.02%
- LOEL (short-term, duration: 10 days, oral, diet, M, C57BL/6, spleen: spleen CD19+ cells + spleen: spleen CD4+ cells + spleen: spleen CD8+ cells + spleen: spleen cellularity + spleen: spleen NK1.1+ …): 0.02%
- LOEL (short-term, duration: 10 days, oral, diet, M, C57BL/6, spleen: spleen: absolute weight + spleen: spleen: relative weight + spleen: total splenic DNA content + thymus: relative thymic DNA content…): 0.02%
- NOEL (short-term, duration: 10 days, oral, diet, M, C57BL/6, spleen: spleen: absolute weight + thymocyte cell proliferation: G0/G1 phase 10 days recovery + thymocyte cell proliferation: G1/2 phase 2 …): 0.02%
- LOEL [6]: 0.01%
- NOEL [6]: 0.003%
- LOEL [7]: 0.01%
- NOEL [7]: 0.005%
